From patent US8993612B2, “Modulators of calcium release-activated calcium channel and methods for treatment of non-small cell lung cancer” (Rhizen Pharmaceuticals SA, priority 2009, dated 2015)
Structures can show the parent of a compound that is named as a salt.

What was measured:
CRAC channels = CRAC channels (Homo sapiens (Human), UniProt Q96D31); assay: In-vitro CRAC channel inhibition assay in Jurkat cells (thapsigargin-induced calcium influx); format: cell-based
Procedure: Inhibition of CRAC channels was determined following thapsigargin (Sigma, Cat # T9033) induced endoplasmic calcium release in Jurkat cells. (see Yasurio Yonetoky et. al Bio. & Med. Chem. 14 (2006) 4750-4760). Cells were centrifuged and resuspended in equal volumes ° f Ca^2+ and Mg^2+ free Hanks buffer and Fluo-8 NW dye (ABD Bioquest, Inc., Sunnyvale, Calif.) loading solution at 2×10^5 cells/100 μl/well in 96-well black plate. Plate is incubated at 37° C./5% CO2 for 30 mM followed by further 15 mM incubation at room temperature. Test compounds (DMSO stocks diluted in Ca^2+ and Mg^2+ free Hanks buffer) at desired concentrations were added to the wells and incubated for […]. Thapsigargin (1 μM final concentration) was added to the wells and incubated for 15 min to inhibit the Sarco-endoplasmic reticulum Ca^2+ ATPase pump thereby depleting endoplasmic calcium and raising cytosolic calcium concentrations. Store-operated calcium entry was initiated by adding extracellular Ca^2+ to a final concentration of 1.8 mM. Fluorescence was monitored over […] on a plate reader (BMG Labtech., Germany) with excitation at 485 nm and an emission wavelength at 520 nm. Data were analyzed using GraphPad Prism. IC50 for each compound was determined based on the percent inhibition of thapsigargin-induced calcium influx into cells.

NCI-H460 cells = assay: In-vitro cell proliferation assay in NCI-H460 cancer cell line (MTT); format: cell-based, human; conditions: Homo sapiens; for inhibition at 10 µM: NCI-H460, 10 μM, 48 h; for IC50: NCI-H460, 48 h, read-out: NCI-H460 Cell line assay G1 50 nM
Procedure: Growth inhibition assays were carried out using 10% FBS supplemented media. Cells were seeded at a concentration of 5000 cells/well in a 96-well plate. Test compound at a concentration range from 0.01 to 10000 nM were added after 24 h. Growth was assessed using the 3-[4,5-dimethylthiazol-2-yl]-2,5-diphenyltetrazolium bromide (MTT) dye reduction test at 0 h (prior to the addition of the test compound) and 48 h after the addition of test compound. Absorbance was read on a Fluostar Optima (BMG Labtech, Germany) at a wave length of 450 nm. Data were analysed using GraphPad Prism. IC-50 for each compound was determined based on the % inhibition due to the test compound compared to the control.
For methods of cell proliferation assay, see, for example, Mosmann. T., Journal of Immunological Methods, 65(1-2), 55-63, (1983).
The effect of CRAC and/or STIM protein on the proliferation and viability of lung cancer cells was determined as follows.
For Methodology Refer 1C.

CRAC channels, sequence (Q96D31 whole entry): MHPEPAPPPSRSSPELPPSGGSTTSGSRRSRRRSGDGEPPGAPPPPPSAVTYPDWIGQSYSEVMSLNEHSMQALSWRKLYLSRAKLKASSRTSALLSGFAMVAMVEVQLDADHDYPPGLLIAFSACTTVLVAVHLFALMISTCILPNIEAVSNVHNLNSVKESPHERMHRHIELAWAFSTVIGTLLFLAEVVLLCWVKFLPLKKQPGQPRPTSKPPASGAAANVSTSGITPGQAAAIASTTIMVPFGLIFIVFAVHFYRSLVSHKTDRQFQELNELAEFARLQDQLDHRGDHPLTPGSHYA

| SMILES | inhibition at 1 µM (CRAC channels; 1 uM) | further results |
| --- | --- | --- |
| O=C(Cn1nnc2ccccc21)Nc1ccc(-n2nc(C3CC3)cc2C2CC2)c(F)c1 [Example 11, 2-(1H-benzo[d][1,2,3]triazol-1-yl)-N-(4-(3,5-dicyclopropyl-1H-pyrazol-1-yl)-3-fluorophenyl)acetamide] | 78.6% |  |
| O=C(Cc1ccc2ncccc2c1)Nc1ccc(-n2nc(C3CC3)cc2C2CC2)c(F)c1 [Example 12, N-[4-(3,5-dicyclopropyl-1H-pyrazol-1-yl)-3-fluorophenyl]-2-(quinolin-6-yl)acetamide Hydrochloride] | 100% | inhibition at 10 µM (NCI-H460 cells): 90%; IC50 (NCI-H460 cells): 100 nM; IC50 (CRAC channels): 263 nM |
| O=C(Cn1nnc2ccccc21)Nc1ccc(-n2nc(C3CC3)cc2C2CC2)nc1 [Example 15, 2-(1H-benzo[d][1,2,3]triazol-1-yl)-N-[6-(3,5-dicyclopropyl-1H-pyrazol-1-yl)pyridin-3-yl]acetamide] | 3.93% |  |
| Cl.Cl.O=C(Cc1ccc2ncccc2c1)Nc1ccc(-n2nc(C3CC3)cc2C2CC2)nc1 [Example 16, N-[6-(3,5-dicyclopropyl-1H-pyrazol-1-yl)pyridin-3-yl]-2-(quinolin-6-yl)acetamidedihydrochloride] |  | % inhibition (1 uM) (CRAC channels; 1 uM): 30.81% |
| O=C(Cn1nc2ccccc2n1)Nc1ccc(-n2nc(C(F)(F)F)cc2C2CC2)cc1 [Example 21, 2-(2H-benzo[d][1,2,3]triazol-2-yl)-N-{4-[5-cyclopropyl-3-(trifluoromethyl)-1H-pyrazol-1-yl]phenyl}acetamide] | 83% | IC50 (CRAC channels): 139 nM |
| O=C(Cn1nnc2cccnc21)Nc1ccc(-n2nc(C(F)(F)F)cc2C2CC2)cc1 [Example 22, 2-(3H-[1,2,3]triazolo[4,5-b]pyridin-3-yl)-N-{4-[5-cyclopropyl-3-(trifluoromethyl)-1H-pyrazol-1-yl]phenyl}acetamide] | 30.9% |  |
| C[C@@H](C(=O)Nc1ccc(-n2nc(C(F)(F)F)cc2C2CC2)cc1)n1nnc2cccnc21 [Example 23, (S)-2-(3H-[1,2,3]triazolo[4,5-b]pyridin-3-yl)-N-{4-[5-cyclopropyl-3-(trifluoromethyl)-1H-pyrazol-1-yl]phenyl}propanamide] | 69.9% |  |
| Nc1ncnc2c1ncn2CC(=O)Nc1ccc(-n2nc(C(F)(F)F)cc2C2CC2)cc1 [Example 24, 2-(6-amino-9H-purin-9-yl)-N-{4-[5-cyclopropyl-3-(trifluoromethyl)-1H-pyrazol-1-yl]phenyl}acetamide] | 14.8% | inhibition at 10 µM (NCI-H460 cells): 84.4% |
| O=C(Nc1ccc(-n2nc(C(F)(F)F)cc2C2CC2)c(F)c1)c1ccc2nn[nH]c2c1 [Example 29, N-{4-[5-cyclopropyl-3-(trifluoromethyl)-1H-pyrazol-1-yl]-3-fluorophenyl}-1H-benzo[d][1,2,3]triazole-6-carboxamide] | 81.1% | inhibition at 10 µM (NCI-H460 cells): 100%; IC50 (NCI-H460 cells): 1520 nM |
| O=C(Nc1ccc(-n2nc(C(F)(F)F)cc2C2CC2)nc1)c1ccc2[nH]nnc2c1 [Example 31, N-{6-[5-cyclopropyl-3-(trifluoromethyl)-1H-pyrazol-1-yl]pyridin-3-yl}-1H-benzo[d][1,2,3]triazole-5-carboxamide] | 50.6% |  |
| O=C(Nc1ccc(-n2nc(C3CC3)cc2C2CC2)cc1)Nc1ccc2ncccc2c1 [Example 37, 1-[4-(3,5-dicyclopropyl-1H-pyrazol-1-yl)phenyl]-3-(quinolin-6-yl)urea] | 57.3% |  |

More lines, main results first:

| inhibition at 1 µM (CRAC channels; 1 uM) | SMILES | further results |
| --- | --- | --- |
| 57.6% | O=C(Nc1ccc(-n2nc(C3CC3)cc2C2CC2)cc1)c1ccc2nc[nH]c2c1 [Example 1, N-[4-(3,5-dicyclopropyl-1H-pyrazol-1-yl)phenyl]-1H-benzo[d]imidazole-6-carboxamide] |  |
| 36.8% | O=C(Cc1c[nH]c2ccccc12)Nc1ccc(-n2nc(C3CC3)cc2C2CC2)cc1 [Example 7, N-[4-(3,5-dicyclopropyl-1H-pyrazol-1-yl)phenyl]-2-(1H-indol-3-yl)acetamide] |  |
| 17.9% | O=C(Cc1cn2ccccc2n1)Nc1ccc(-n2nc(C3CC3)cc2C2CC2)cc1 [Example 8, N-[4-(3,5-dicyclopropyl-1H-pyrazol-1-yl)phenyl]-2-(imidazo[1,2-a]pyridin-2-yl)acetamide Hydrochloride] |  |
| 22.4% | O=C(Nc1ccc(-n2nc(C3CC3)cc2C2CC2)nc1)c1ccc2ncccc2c1 [Example 13, N-[6-(3,5-dicyclopropyl-1H-pyrazol-1-yl)pyridin-3-yl]quinoline-6-carboxamide Dihydrochloride] |  |
| 17.8% | O=C(Nc1ccc(-n2nc(C3CC3)cc2C2CC2)nc1)c1ccc2nccnc2c1 [Example 14, N-[6-(3,5-dicyclopropyl-1H-pyrazol-1-yl)pyridin-3-yl]quinoxaline-6-carboxamide] |  |
| 96.6% | O=C(Nc1ccc(-n2nc(C(F)(F)F)cc2C2CC2)cc1)c1ccc2nccnc2c1 [Example 18, N-{4-[5-cyclopropyl-3-(trifluoromethyl)-1H-pyrazol-1-yl]phenyl}quinoxaline-6-carboxamide] | IC50 (CRAC channels): 53.4 nM |
| 39.1% | Cn1c(=O)c2c(ncn2CC(=O)Nc2ccc(-n3nc(C(F)(F)F)cc3C3CC3)cc2)n(C)c1=O [Example 25, N-(4-(5-cyclopropyl-3-(trifluoromethyl)-1H-pyrazol-1-yl)phenyl)-2-(1,3-dimethyl-2,6-dioxo-2,3-dihydro-1H-purin-7(6H)-yl)acetamide] |  |
| 30.9% | O=C(Cc1cn2ccccc2n1)Nc1ccc(-n2nc(C(F)(F)F)cc2C2CC2)cc1 [Example 26, N-{4-[5-cyclopropyl-3-(trifluoromethyl)-1H-pyrazol-1-yl)phenyl)-2-(imidazo[1,2-a]pyridin-2-yl)acetamide Hydrochloride] |  |
| 0% | CC(C(=O)Nc1ccc(-n2nc(C(F)(F)F)cc2C2CC2)cc1)c1ccc2ncccc2c1 (stereo not shown) [Example 28, N-{4-[5-cyclopropyl-3-(trifluoromethyl)-1H-pyrazol-1-yl]phenyl}-2-(quinolin-6-yl)propanamide Hydrochloride] |  |
| 100% | O=C(Cn1nnc2ccccc21)Nc1ccc(-n2nc(C(F)(F)F)cc2C2CC2)c(F)c1 [Example 30, 2-(1H-benzo[d][1,2,3]triazol-1-yl)-N-{4-[5-cyclopropyl-3-(trifluoromethyl)-1H-pyrazol-1-yl]-3-fluorophenyl}acetamide] | IC50 (CRAC channels): 160 nM |
| 41.2% | O=C(Cn1nnc2ccccc21)Nc1ccc(-n2nc(C(F)(F)F)cc2C2CC2)nc1 [Example 32, 2-(1H-benzo[d][1,2,3]triazol-1-yl)-N-{6-[5-cyclopropyl-3-(trifluoromethyl)-1H-pyrazol-1-yl]pyridin-3-yl}acetamide] |  |
| 49.5% | O=C(Cn1nc2ccccc2n1)Nc1ccc(-n2nc(C(F)(F)F)cc2C2CC2)nc1 [Example 33, 2-(2H-benzo[d][1,2,3]triazol-2-yl)-N-{6-[5-cyclopropyl-3-(trifluoromethyl)-1H-pyrazol-1-yl]pyridin-3-yl}acetamide] |  |
| 51.2% | O=C(Cc1ccc2ncccc2c1)Nc1ccc(-n2nc(C(F)(F)F)cc2C2CC2)nc1 [Example 34, N-{6-[5-cyclopropyl-3-(trifluoromethyl)-1H-pyrazol-1-yl]pyridin-3-yl}-2-(quinolin-6-yl)acetamide hydrochloride] | inhibition at 10 µM (NCI-H460 cells): 82.7%; IC50 (NCI-H460 cells): 628 nM |
| 15% | O=C(Cn1nnc2ccccc21)Nc1ccc(-n2nc(C(F)(F)F)c(Cl)c2C2CC2)nc1 [Example 35, 2-(1H-benzo[d][1,2,3]triazol-1-yl)-N-{6-[4-chloro-5-cyclopropyl-3-(trifluoromethyl)-1H-pyrazol-1-yl]pyridin-3-yl}acetamide] |  |
| 51% | O=C(NCc1ccc2ncccc2c1)c1ccc(-n2nc(C(F)(F)F)cc2C2CC2)c(F)c1 [Example 36, 4-[5-cyclopropyl-3-(trifluoromethyl)-1H-pyrazol-1-yl]-3-fluoro-N-(quinolin-6-ylmethyl)benzamide hydrochloride] |  |
